{
  "source": "patent US9890133B2",
  "about": "(priority 2011, dated 2018)",
  "assay": "in vitro",
  "conditions": "human",
  "data": [
    {"smiles": "CC(=O)Nc1c(N)ccc2c1C(=O)C1(O)c3ccc(C(C)C)cc3OC21O", "note": "(stereo not shown) [Example 59, N-(2-Amino-4b,9b-dihydroxy-7-isopropyl-10-oxo-9b,10-dihydro-4bH-benzo[d]indeno[1,2-b]furan-1-yl)acetamide]", "values": [
      {"measurement": "CC50", "setting": "Picorana CC50", "result": "> 50", "unit": "µg/mL"}
    ]},
    {"smiles": "CC(C)c1ccc2c(c1)OC1(O)c3ccc([N+](=O)[O-])c(N)c3C(=O)C21O", "note": "(stereo not shown) [Example 60, 1-Amino-4b,9b-dihydroxy-7-isopropyl-2-nitro-4bH-indeno[1,2-b]benzofuran-10(9bH)-one]", "values": [
      {"measurement": "CC50", "setting": "Picorana CC50", "result": 10.6, "unit": "µg/mL"}
    ]},
    {"smiles": "CC(C)c1cc(C(C)C)c2c(c1)C1(O)C(=O)c3ccccc3C1(O)O2", "note": "(stereo not shown) [Example 64, 4b,9b-Dihydroxy-6,8-diisopropyl-4b,9b-dihydro-5-oxa-indeno[2,1-a]inden-10-one]", "values": [
      {"measurement": "CC50", "setting": "Picorana CC50", "result": 8.13, "unit": "µg/mL"}
    ]},
    {"smiles": "CC(C)c1ccc2c(c1)OC1(O)c3ccccc3C(=O)C21N", "note": "(stereo not shown) [Example 65, 9b-Amino-4b-hydroxy-7-isopropyl-4b,9b-dihydro-5-oxa-indeno[2,1-a]inden-10-one]", "values": [
      {"measurement": "CC50", "setting": "Picorana CC50", "result": 18.2, "unit": "µg/mL"}
    ]},
    {"smiles": "CCCCCCNC12C(=O)c3ccccc3C1(O)Oc1cc(C(C)C)ccc12", "note": "(stereo not shown) [Example 67, 9b-Hexylamino-4b-hydroxy-7-isopropyl-4b,9b-dihydro-5-oxa-indeno[2,1-a]inden-10-one]", "values": [
      {"measurement": "CC50", "setting": "Picorana CC50", "result": 9.42, "unit": "µg/mL"}
    ]},
    {"smiles": "CC(C)c1cc(C(C)C)c2c(c1)C1(N)C(=O)c3ccccc3C1(O)O2", "note": "(stereo not shown) [Example 68, 9b-Amino-4b-hydroxy-6,8-diisopropyl-4b,9b-dihydro-5-oxa-indeno[2,1-a]inden-10-one]", "values": [
      {"measurement": "CC50", "setting": "Picorana CC50", "result": 8.94, "unit": "µg/mL"}
    ]},
    {"smiles": "CC(C)c1ccc2c(c1)OC1(O)c3ccccc3C(=O)C21N=C=O", "note": "(stereo not shown) [Example 69, 4b-Hydroxy-9b-isocyanato-7-isopropyl-4b,9b-dihydro-5-oxa-indeno[2,1-a]-inden-10-one]", "values": [
      {"measurement": "CC50", "setting": "Picorana CC50", "result": 70, "unit": "µg/mL"}
    ]},
    {"smiles": "CC(C)NC(=O)NC12C(=O)c3c([N+](=O)[O-])cccc3C1(O)Oc1cc(C(C)C)ccc12", "note": "(stereo not shown) [Example 76, 1-(4b-Hydroxy-7-isopropyl-1-nitro-10-oxo-4b,10-dihydro-5-oxa-indeno[2,1-a]inden-9b-yl)-3-isopropyl-urea]", "values": [
      {"measurement": "CC50", "setting": "Picorana CC50", "result": "> 50", "unit": "µg/mL"}
    ]},
    {"smiles": "CC(C)C(=O)NC12C(=O)c3c(N)cccc3C1(O)Oc1cc(C(C)C)ccc12", "note": "(stereo not shown) [Example 77, N-(1-Amino-4b-hydroxy-7-isopropyl-10-oxo-4b,10-dihydro-5-oxa-indeno[2,1-a]inden-9b-yl)-isobutylamide]", "values": [
      {"measurement": "CC50", "result": 53.9, "unit": "µg/mL"},
      {"measurement": "CC50", "setting": "Picorana CC50", "result": "> 50", "unit": "µg/mL"}
    ]},
    {"smiles": "CCCCC(=O)NC12C(=O)c3c(N)cccc3C1(O)Oc1cc(C(C)C)ccc12", "note": "(stereo not shown) [Example 78, Pentanoic acid (1-amino-4b-hydroxy-7-isopropyl-10-oxo-4b,10-dihydro-5-oxa-indeno[2,1-a]inden-9b-yl)-amide]", "values": [
      {"measurement": "CC50", "result": 20.6, "unit": "µg/mL"},
      {"measurement": "CC50", "setting": "Picorana CC50", "result": 47.7, "unit": "µg/mL"}
    ]},
    {"smiles": "CO/N=C1/c2ccccc2C2(O)Oc3cc(C(C)C)ccc3C12O", "note": "(stereo not shown) [Example 88, 4b,9b-Dihydroxy-7-isopropyl-4bH-indeno[1,2-b]benzofuran-10(9bH)-one O-methyl oxime]", "values": [
      {"measurement": "CC50", "setting": "Picorana CC50", "result": 8.16, "unit": "µg/mL"}
    ]},
    {"smiles": "CCCC(=O)NC12C(=O)c3ccccc3C1(OC(=O)CCC)Oc1cc(C(C)C)ccc12", "note": "(stereo not shown) [Example 89, Butyric acid 9b-butyrylamino-7-isopropyl-10-oxo-9b,10-dihydro-5-oxa-indeno[2,1-a]inden-4b-yl ester]", "values": [
      {"measurement": "CC50", "setting": "Picorana CC50", "result": "> 50", "unit": "µg/mL"}
    ]},
    {"smiles": "CCCCCCCC(=O)NC12C(=O)c3ccccc3C1(O)Oc1cc(C(C)C)ccc12", "note": "(stereo not shown) [Example 90]", "values": [
      {"measurement": "CC50", "setting": "Picorana CC50", "result": 34, "unit": "µg/mL"}
    ]},
    {"smiles": "CCCCCC(=O)NC12C(=O)c3ccccc3C1(OC(=O)CCCCC)Oc1cc(C(C)C)ccc12", "note": "(stereo not shown) [Example 91, Hexanoic acid 9b-hexanoylamino-7-isopropyl-10-oxo-9b,10-dihydro-5-oxa-indeno[2,1-a]inden-4b-yl ester]", "values": [
      {"measurement": "CC50", "setting": "Picorana CC50", "result": "> 50", "unit": "µg/mL"}
    ]},
    {"smiles": "CCCCCCC(=O)NC12C(=O)c3ccccc3C1(OC(=O)CCCCCC)Oc1cc(C(C)C)ccc12", "note": "(stereo not shown) [Example 92, Heptanoic acid 9b-heptanoylamino-7-isopropyl-10-oxo-9b,10-dihydro-5-oxa-indeno[2,1-a]inden-4b-yl ester]", "values": [
      {"measurement": "CC50", "setting": "Picorana CC50", "result": "> 50", "unit": "µg/mL"}
    ]},
    {"smiles": "CCCCCCCC(=O)N[C@@]12C(=O)c3c(N)cccc3[C@]1(O)Oc1cc(C(C)C)ccc12", "note": "[Example 93, N-((4bS,9bS)-1-Amino-4b-hydroxy-7-isopropyl-10-oxo-9b,10-dihydro-4bH-indeno[1,2-b]benzofuran-9b-yl)octanamide]", "values": [
      {"measurement": "CC50", "result": 6.23, "unit": "µg/mL"},
      {"measurement": "CC50", "setting": "Picorana CC50", "result": 8.49, "unit": "µg/mL"}
    ]},
    {"smiles": "CCC(=O)N[C@@]12C(=O)c3c(N)cccc3[C@]1(OC(=O)CC)Oc1cc(C(C)C)ccc12", "note": "[Example 94, (4bR,9bS)-1-Amino-7-isopropyl-10-oxo-9b-propionamido-9b,10-dihydro-4bH-indeno[1,2-b]benzofuran-4b-yl propionate]", "values": [
      {"measurement": "CC50", "result": 58.1, "unit": "µg/mL"},
      {"measurement": "CC50", "setting": "Picorana CC50", "result": 42.4, "unit": "µg/mL"}
    ]},
    {"smiles": "CCCC(=O)N[C@@]12C(=O)c3c(N)cccc3[C@]1(OC(=O)CCC)Oc1cc(C(C)C)ccc12", "note": "[Example 95, (4bR,9bS)-1-Amino-9b-butyramido-7-isopropyl-10-oxo-9b,10-dihydro-4bH-indeno[1,2-b]benzofuran-4b-yl butyrate]", "values": [
      {"measurement": "CC50", "result": 26, "unit": "µg/mL"},
      {"measurement": "CC50", "setting": "Picorana CC50", "result": 38.1, "unit": "µg/mL"}
    ]},
    {"smiles": "CCCCCC(=O)NC12C(=O)c3c(N)cccc3C1(OC(=O)CCCCC)Oc1cc(C(C)C)ccc12", "note": "(stereo not shown) [Example 97, 1-amino-9b-hexanamido-7-isopropyl-10-oxo-9b,10-dihydro-4bH-benzo[d]indeno[1,2-b]furan-4b-yl hexanoate]", "values": [
      {"measurement": "CC50", "result": 8.8, "unit": "µg/mL"},
      {"measurement": "CC50", "setting": "Picorana CC50", "result": "> 50", "unit": "µg/mL"}
    ]},
    {"smiles": "CO[C@@]12C(=O)c3ccccc3[C@]1(O)Oc1cc(C(C)C)ccc12", "note": "[Example 98, (4bS,9bS)-4b-Hydroxy-7-isopropyl-9b-methoxy-4bH-indeno[1,2-b]benzofuran-10(9bH)-one]", "values": [
      {"measurement": "CC50", "setting": "Picorana CC50", "result": 7.8, "unit": "µg/mL"}
    ]},
    {"smiles": "CCCCCCC(=O)NC12C(=O)c3c(N)cccc3C1(OC(=O)CCCCCC)Oc1cc(C(C)C)ccc12", "note": "(stereo not shown) [Example 99, 1-Amino-9b-heptanamido-7-isopropyl-10-oxo-9b,10-dihydro-4bH-benzo[d]indeno[1,2-b]furan-4b-yl heptanoate]", "values": [
      {"measurement": "CC50", "result": 7.7, "unit": "µg/mL"},
      {"measurement": "CC50", "setting": "Picorana CC50", "result": "> 50", "unit": "µg/mL"}
    ]},
    {"smiles": "CO[C@@]12Oc3cc(C(C)C)ccc3[C@]1(NC(N)=O)C(=O)c1ccccc12", "note": "[Example 100, 1-((4bS,9bS)-7-Isopropyl-4b-methoxy-10-oxo-9b,10-dihydro-4bH-indeno[1,2-b]benzofuran-9b-yl)urea]", "values": [
      {"measurement": "CC50", "setting": "Picorana CC50", "result": 40.6, "unit": "µg/mL"}
    ]},
    {"smiles": "CNC(=O)N[C@@]12C(=O)c3ccccc3[C@]1(O)Oc1cc(C(C)C)ccc12", "note": "[Example 101, 1-((4bS,9bS)-4b-Hydroxy-7-isopropyl-10-oxo-9b,10-dihydro-4bH-indeno[1,2-b]benzofuran-9b-yl)-3-methylurea]", "values": [
      {"measurement": "CC50", "setting": "Picorana CC50", "result": "> 50", "unit": "µg/mL"}
    ]},
    {"smiles": "CCNC(=O)N[C@@]12C(=O)c3ccccc3[C@]1(O)Oc1cc(C(C)C)ccc12", "note": "[Example 102, 1-Ethyl-3-((4bS,9bS)-4b-hydroxy-7-isopropyl-10-oxo-9b,10-dihydro-4bH-indeno[1,2-b]benzofuran-9b-yl)urea]", "values": [
      {"measurement": "CC50", "setting": "Picorana CC50", "result": "> 50", "unit": "µg/mL"}
    ]},
    {"smiles": "CONC(=O)N[C@@]12C(=O)c3ccccc3[C@]1(O)Oc1cc(C(C)C)ccc12", "note": "[Example 103, 1-((4bS,9bS)-4b-Hydroxy-7-isopropyl-10-oxo-9b,10-dihydro-4bH-indeno[1,2-b]benzofuran-9b-yl)-3-methoxyurea]", "values": [
      {"measurement": "CC50", "setting": "Picorana CC50", "result": "> 50", "unit": "µg/mL"}
    ]},
    {"smiles": "CC(=O)N1c2cc(C)c(C)cc2C2(O)C(=O)c3ccccc3C12O", "note": "(stereo not shown) [Example 104, 5-Acetyl-4b,9b-dihydroxy-7,8-dimethyl-4b,5-dihydroindeno[1,2-b]indol-10(9bH)-one]", "values": [
      {"measurement": "CC50", "setting": "Picorana CC50", "result": "> 50", "unit": "µg/mL"}
    ]},
    {"smiles": "CCC(=O)N1c2cc(C)c(C)cc2C2(O)C(=O)c3ccccc3C12O", "note": "(stereo not shown) [Example 105, 4b,9b-Dihydroxy-7,8-dimethyl-5-propionyl-4b,5-dihydroindeno[1,2-b]indol-10(9bH)-one]", "values": [
      {"measurement": "CC50", "setting": "Picorana CC50", "result": "> 50", "unit": "µg/mL"}
    ]}
  ]
}
